Experimental data as given in publication PMC11843658 (Journal of Enzyme Inhibition and Medicinal Chemistry, 2025).

Tests used:
Caco-2 cells = assay: CCK8 assay, Caco-2 colon cancer cells; type: cell-based; settings: Homo sapiens, 10 μM, 48 h, read-out: cell viability rate
Description: (§1) C42B, PC3, Caco-2, HepG2, MCF7, HL-60, 8505 C, OVCAR-3, and A549 were cultured to screen the broad-spectrum antiproliferative activity of compound 14. For above cell lines, three thousand cells per well were seeded in the 96-well plate and treated by compound 14 for 48 or 72 h at different concentrations (0, 5, 10, and 20 μM). In addition, HepG2, HEP3B, HUH6, and HUH7 were cultured to screen its antiproliferative activity against liver cancer cell lines. For these liver cancer cell lines, two thousand cells per well were seeded in the 96-well plate and treated by compound 14 for 48 h at different concentrations (0, 0.625, 1.25, 2.5, and 5 μM). Then, 10 μl of CCK8 was added into each well and cells were incubated in a humidified atmosphere of 5% CO2 at 37 °C for 4 h. The 96-well plate was measured with a microplate reader (Bio-Tek, San Diego, CA) at a wavelength of 450 nm to calculate IC50 values.

8505 C cells = assay: CCK8 assay, 8505 C thyroid cancer cells; type: cell-based; settings: Homo sapiens, 10 μM, 48 h, read-out: cell viability rate
Description: as §1

A549 cells = assay: CCK8 assay, A549 lung cancer cells; type: cell-based; settings: Homo sapiens, 10 μM, 48 h, read-out: cell viability rate
Description: as §1

HUH6 cells = assay: CCK8 assay, HUH6 liver cancer cells; type: cell-based; settings: Homo sapiens, HuH-6, CCK8, 48 h, 0-5 μM, read-out: IC50, antiproliferative activity
Description: as §1

HUH7 cells = assay: CCK8 assay, HUH7 liver cancer cells; type: cell-based; settings: Homo sapiens, Huh-7, CCK8, 48 h, 0-5 μM, read-out: IC50, antiproliferative activity
Description: as §1

MAO-A = target: T1, MAO-A (Homo sapiens, UniProt P21397); assay: Inhibitory activity against MAO-A (kynuramine); type: biochemical; settings: tested at 250, 500, and 1000 nM
T1 construct: purchased Servicebio (Wuhan, China)
Description: (§2) In order to analyse the enzymatic selectivity of compound 14, MAO-A/B was purchased from Servicebio (Wuhan, China). MAO-A was dissolved in phosphate buffer (0.1 M, pH = 7.4) to get MAO-A enzymatic buffer with a concentration of 0.006 mg/ml. MAO-B was also dissolved in phosphate buffer (0.1 M, pH = 7.3) to get MAO-B enzymatic buffer with a concentration of 0.015 mg/mL. Kynuramine dihydrochloride (Servicebio, Wuhan, China) was used to get the assay buffer with a concentration of 40 μM for MAO-A and 20 μM for MAO-B. An aliquot of 97 μl of assay buffer and 3 μl of compound 14 at different concentrations (250, 500, and 1000 nM) were added into each well on the 96-well black plate. The plate was incubated at 37 °C for 20 min, and 80 μl of 2 N sodium hydroxide was added into each well to stop the reaction. The fluorescence of each well was measured using a microplate reader (Agilent Technologies Inc., CA) with an excitation at 310 nm and an emission at 380 nm.

MAO-B = target: T2, MAO-B (Homo sapiens, UniProt P27338); assay: Inhibitory activity against MAO-B (kynuramine); type: biochemical; settings: tested at 250, 500, and 1000 nM
T2 construct: purchased Servicebio (Wuhan, China)
Description: as §2

HepG2 cells = assay: Xenograft study, HepG2 cells in nude mice; type: in vivo, BALB/c nude mice; settings: 60 mg/kg by gavage every day for 21 days
Description: Tumorigenesis in nude mice could stimulate the growth process of human tumours in the body, and could be used to develop and evaluate the effectiveness and safety of anti-cancer candidates. Therefore, xenograft studies in nude mice were performed to evaluate anticancer effects of compound 14. Animals were treated according to the protocols established by the ethics committee of The Fourth Clinical College of Xinxiang Medical University. The in vivo experiments were carried out in accordance with the approved guidelines and approved by the ethics committee of The Fourth Clinical College of Xinxiang Medical University. The number of ethics approvals is XMU-2024–01-03. All authors have adhered to the ARRIVE guidelines (https://arriveguidelines.org/). BALB/c nude mice were purchased from Beijing Huafukang Biotechnology Co., LTD (Beijing, China), and fifteen mice were used in this study (aged 6–7 weeks and weighing 20–30 g). Before the animal experiments, all nude mice were given a week to adjust to the clean, hygienic and specific-pathogen-free environment. All nude mice were taken care of instainless steel cages with a constant temperature of 60% humidity, 25 °C and a 12/12 light/dark cycle. Nude mice were fed with refreshing water and nourishing food everyday.
Then, nude mice were anaesthetised with 2% isoflurane and 0.3 l/min of oxygen by the small animal anaesthesia machine (Beijing Yi Zejia Technology Co., LTD, Beijing, China). 3 × 10^5 human liver cancer HepG2 cells were subcutaneously injected in the right armpit of mice. Until the volume of tumours reached 60–100 mm^3, all mice were randomly divided into three groups and each group had five nude mice. An amount of 60 mg/kg of compound 14, 10 mg/kg of seclidemstat and water as the control group were given by gavage every day for 21 days. Weight of mice and tumour volume were measured every 3 d. All nude mice in this xenograft studies were performed euthanizing procedures using a carbon dioxide euthanasia chamber (Shanghai Yuyan Instruments Co., Ltd, Shanghai, China). The flow rate of carbon dioxide was adjusted at 20% of the volume of the euthanasia chamber per minute. Once nude mice were unconscious, the flow rate was increased to 100% of the euthanasia chamber volume per minute. Death was confirmed by immobility, non-breathing and pupil enlargement. Tumours form BALB/c nude mice were isolated and weighed.

T2 sequence (P27338 whole entry, species assumed): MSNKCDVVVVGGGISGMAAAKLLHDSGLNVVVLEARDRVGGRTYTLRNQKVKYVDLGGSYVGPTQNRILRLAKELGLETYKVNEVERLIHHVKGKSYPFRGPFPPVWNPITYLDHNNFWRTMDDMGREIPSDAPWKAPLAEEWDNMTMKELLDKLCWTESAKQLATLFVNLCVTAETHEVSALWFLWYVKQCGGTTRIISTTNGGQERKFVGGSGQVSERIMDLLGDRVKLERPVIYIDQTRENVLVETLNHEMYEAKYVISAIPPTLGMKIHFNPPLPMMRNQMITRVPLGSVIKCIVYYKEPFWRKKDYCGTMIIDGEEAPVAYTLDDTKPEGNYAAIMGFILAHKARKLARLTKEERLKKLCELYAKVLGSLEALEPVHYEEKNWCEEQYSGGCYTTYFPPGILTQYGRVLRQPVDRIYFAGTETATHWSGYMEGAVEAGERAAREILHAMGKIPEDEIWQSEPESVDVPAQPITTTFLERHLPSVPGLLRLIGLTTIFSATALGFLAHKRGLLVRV
T1 sequence (P21397 whole entry, species assumed): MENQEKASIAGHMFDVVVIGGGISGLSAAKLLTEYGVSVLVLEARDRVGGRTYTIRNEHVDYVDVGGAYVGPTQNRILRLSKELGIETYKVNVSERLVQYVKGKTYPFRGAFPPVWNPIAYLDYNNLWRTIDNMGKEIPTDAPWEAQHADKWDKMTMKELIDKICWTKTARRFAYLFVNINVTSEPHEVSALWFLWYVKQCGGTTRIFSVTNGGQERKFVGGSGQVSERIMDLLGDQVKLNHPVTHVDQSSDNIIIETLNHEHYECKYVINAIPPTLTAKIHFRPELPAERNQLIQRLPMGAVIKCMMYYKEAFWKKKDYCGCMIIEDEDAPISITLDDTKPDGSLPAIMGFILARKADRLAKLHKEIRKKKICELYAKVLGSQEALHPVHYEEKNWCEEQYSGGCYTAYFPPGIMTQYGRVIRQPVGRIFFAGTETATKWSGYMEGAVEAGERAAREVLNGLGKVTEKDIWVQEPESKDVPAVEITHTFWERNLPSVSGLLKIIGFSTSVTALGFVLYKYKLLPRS

Compound: COc1ccc(CN(C(=O)CCN2C(=O)CCCC2=O)c2cc(OC)c(OC)c(OC)c2)cc1 [Compound 14, 3-(2,6-dioxopiperidin-1-yl)-N-(4-methoxybenzyl)-N-(3,4,5-trimethoxyphenyl)propanamide]
- viability at 10 µM (Caco-2 cells): 72.3%
- viability at 10 µM (8505 C cells): 49.7%
- viability at 10 µM (A549 cells): 41.1%
- IC50 (HUH6 cells): 1.43 µM
- IC50 (HUH7 cells): 4.37 µM
- IC50 (MAO-A): > 1 µM
- IC50 (MAO-B): > 1 µM
- growth of subcutaneous tumours (HepG2 cells; nude mice bearing HepG2 cells): inhibited the growth of subcutaneous tumours
- tumour growth inhibition rate (HepG2 cells; tumour weight, nude mice bearing HepG2 cells): 50.3%
- tumour volume (HepG2 cells; vs control group): significantly lower than that in control group
- tumour weight (HepG2 cells; vs control group): lower than that of control group
